Columns and labels:
[1] = Dynamic light scattering (DLS) of Fluc mRNA/peptoid formulations: particle size and polydispersity; format: physicochemical; conditions: 5:1 mass ratio peptoid:cargo; for Size (volume average particle size/diameter): Fluc mRNA/peptoid complex; for Size PDI (size polydispersity index): Fluc mRNA/peptoid formulation
Description: (§1) In standard formulations, the tertiary amino lipidated and/or PEGylated cationic peptide compound is dissolved in anhydrous ethanol at a concentration of 0.5 mg/mL (for in vitro experiments) or 5 mg/mL (for in vivo experiments). The resulting solutions are stable at room temperature, but should be stored at −20° C. The nucleic acid cargo is dissolved in DNAse or RNAse-free water at a final concentration of 0.2 mg/mL (for in vitro experiments) or 1 mg/mL (for in vivo experiments). These solutions should be stored at −20° C. or at −78° C. for longer time periods. To prepare nanoparticle formulations, the tertiary amino lipidated and/or PEGylated cationic peptide compound is mixed by pipetting with nucleic acid at a mass ratio between approximately 1:1 (peptide compound:cargo) and 20:1. Prior to formulation, tertiary amino lipidated and/or PEGylated cationic peptide compounds and cargo (such as nucleic acid) are diluted in ethanol and acidic buffer (PBS adjusted to pH 5.5 with 0.1 M HCl) respectively to a volume ratio of 1:3 and to target a final cargo concentration of approximately 0.05 mg/mL to 0.2 mg/mL. The exemplary amino lipidated cationic peptoids 1-36 described in Example 2 were combined with firefly luciferase (Flue) mRNA to form nanoparticle compositions to be evaluated for therapeutic and/or prophylactic purposes in vitro or in vivo. The formulations were prepared according to the protocol of Example 3 and mixed by simple pipetting. The mRNA/peptoid formulation at a 5:1 mass ratio of peptoid:cargo were evaluated by dynamic light scattering (DLS) in order to determine the volume average particle size/diameter (nm) of the mRNA/peptoid complex and the size polydispersity index (PDI) within the formulation. The percentage of mRNA encapsulation for each formulation of the exemplary compounds were determined by fluorescence of the Qubit RNA HS (Invitrogen) dye before and after lysis of particles by Triton X-100.

[2] = mRNA encapsulation by Qubit RNA HS dye fluorescence before and after Triton X-100 lysis; format: physicochemical; conditions: Fluc mRNA/peptoid formulation, 5:1 mass ratio peptoid:cargo
Description: as §1

Size (volume average particle size/diameter) [1] | Size PDI (size polydispersity index) [1] | % Encapsulation (percentage of mRNA encapsulation) [2] | Compound
364.7 nm | 0.308 | 88.3% | CCCCCCCCCCCCCCCCCCN(CC(N)=O)C(=O)CN(CCCCCCCCCCCCCCCCCC)C(=O)CN(CCc1ccccc1)C(=O)CN(CCc1ccccc1)C(=O)CN(CCN)C(=O)CN(CCc1ccccc1)C(=O)CN(CCc1ccccc1)C(=O)CN(CCN)C(=O)CN(CCc1ccccc1)C(=O)CN(CCc1ccccc1)C(=O)CNCCN [Compound 5]
367.9 nm | 0.122 | 73.9% | CCCCCCCCCCN(CC(N)=O)C(=O)CN(CCCCCCCCCC)C(=O)CN(CCc1ccccc1)C(=O)CN(CCc1ccccc1)C(=O)CNCCN [Compound 9]
822.6 nm | 0.447 | 90.4% | CCCCCCCCCCN(CC(N)=O)C(=O)CN(CCCCCCCCCC)C(=O)CN(CCc1ccccc1)C(=O)CN(CCN)C(=O)CN(CCc1ccccc1)C(=O)CN(CCN)C(=O)CN(CCc1ccccc1)C(=O)CNCCN [Compound 13]
348.5 nm | 0.404 | 35.7% | CCCCCCCCCCN(CC(N)=O)C(=O)CN(CCCCCCCCCC)C(=O)CN(CCCCCCCCCC)C(=O)CN(CCCCCCCCCC)C(=O)CN(CCc1ccccc1)C(=O)CN(CCc1ccccc1)C(=O)CN(CC1CCNCC1)C(=O)CN(CCc1ccccc1)C(=O)CN(CCc1ccccc1)C(=O)CN(CC1CCNCC1)C(=O)CN(CCc1ccccc1)C(=O)CN(CCc1ccccc1)C(=O)CNCC1CCNCC1 [Compound 31]
1486 nm | 1 | 85.4% | CCCCCCCCCCN(CC(N)=O)C(=O)CN(CCCCCCCCCC)C(=O)CN(CCN)C(=O)CN(CCN)C(=O)CN(CCN)C(=O)CN(CCN)C(=O)CN(CCN)C(=O)CN(CCN)C(=O)CN(CCN)C(=O)CN(CCN)C(=O)CNCCN [Compound 16]
1064 nm | 1 | 76.9% | CCCCCCCCCCN(CC(N)=O)C(=O)CN(CCCCCCCCCC)C(=O)CN(CCN)C(=O)CN(CCN)C(=O)CN(CCN)C(=O)CN(CCN)C(=O)CNCCN [Compound 15]
150 nm | 0.128 | 100.3% | CCCCCCCCCCN(CC(N)=O)C(=O)CN(CCCCCCCCCC)C(=O)CN(CCc1ccccc1)C(=O)CN(CCc1ccccc1)C(=O)CN(CCN)C(=O)CN(CCc1ccccc1)C(=O)CN(CCc1ccccc1)C(=O)CN(CCN)C(=O)CN(CCc1ccccc1)C(=O)CN(CCc1ccccc1)C(=O)CNCCN [Compound 2]
308 nm | 0.085 | 52.0% | CCCCCCCCCCN(CC(N)=O)C(=O)CN(CCCCCCCCCC)C(=O)CN(CCCCCCCCCC)C(=O)CN(CCCCCCCCCC)C(=O)CN(CCc1ccccc1)C(=O)CN(CCc1ccccc1)C(=O)CN(CCCN)C(=O)CN(CCc1ccccc1)C(=O)CN(CCc1ccccc1)C(=O)CN(CCCN)C(=O)CN(CCc1ccccc1)C(=O)CN(CCc1ccccc1)C(=O)CNCCCN [Compound 28]
593 nm | 0.762 | 88.5% | CCCCCCCCCCNCC(=O)N(CCN)CC(=O)N(CCc1ccccc1)CC(=O)N(CCc1ccccc1)CC(=O)N(CCN)CC(=O)N(CCc1ccccc1)CC(=O)N(CCc1ccccc1)CC(=O)N(CCN)CC(=O)N(CCc1ccccc1)CC(=O)N(CCc1ccccc1)CC(=O)N(CCCCCCCCCC)CC(N)=O [Compound 18]

Reference: patent US11701434B2, “Tertiary amino lipidated cationic peptides for nucleic acid delivery” (Nutcracker Therapeutics, Inc., priority 2018, dated 2023)
